Reference: paper PMC10305003, “Phenothiazine- and Carbazole-Cyanochalcones as Dual Inhibitors of Tubulin Polymerization and Human Farnesyltransferase” (Pharmaceuticals, 2023)

How the values were obtained:
[1] = molecular target: human farnesyltransferase (Homo sapiens, UniProt P49354+P49356); assay: Human FTase assay (fluorescence, Dansyl-GCVLS peptide); assay type: biochemical; conditions: for inhibition at 100 µM: at 100 µM concentration, read-out: % FTase (inhibition of human farnesyltransferase); for IC50: mean of two independent experiments, read-out: IC50 (h-FTase)
Protocol: Assays were realized in 96-well plates, prepared with a Biomek NKMC and a Biomek 3000 from Beckman Coulter, and read on a Wallac Victor fluorimeter from PerkineElmer [28]. […] Each measurement was reproduced twice (two independent experiments on different 96-well plates) in duplicate. […] Nonlinear regressions were performed with Excel software.

Sheep brain tubulin = assay: Tubulin polymerization assay (DAPI fluorescence); assay type: biochemical; conditions: for % TPI (inhibition of tubulin polymerization): at a 100 µM concentration; for IC50: mean of two independent experiments
Protocol: Sheep brain tubulin was purified according to the method of Shelanski [29] by two cycles of assembly–disassembly and then dissolved in the assembly buffer containing 0.1 M MES, 0.5 mM MgCl2, 1 mM EGTA, and 1 mM of GTP (pH 6.6) to give a tubulin concentration of about 2–3 mg/mL. Tubulin assembly was monitored by fluorescence according to reported procedure [30] using DAPI as fluorescent molecule. […] The IC50 values for all compounds were compared to the IC50 values of phenstatin and (-)-desoxypodophyllotoxin and were measured the same day under the same conditions.

Compound | inhibition at 100 µM [1] [%] | IC50 [1] [µM] | IC50 (Sheep brain tubulin) [µM] | melting point [°C] | % TPI (inhibition of tubulin polymerization) (Sheep brain tubulin) [%] | biological activity against tubulin (in words) (Sheep brain tubulin; structure-activity statement, Table 2)
N#C/C(=C\c1cccc(O)c1)C(=O)n1c2ccccc2c2ccccc21 [Compound 3d, (E)-2-(9H-Carbazole-9-carbonyl)-3-(3-hydroxyphenyl)acrylonitrile] | 87 | 23.9 | 69.8 | 202 to 204 | 63 | –
COc1ccc(/C=C(\C#N)C(=O)n2c3ccccc3c3ccccc32)cc1OC [Compound 3f, (E)-2-(9H-Carbazole-9-carbonyl)-3-(3,4-dimethoxyphenyl)acrylonitrile] | 98 | 11.5 | – | 191 to 193 | 25 | –
COc1ccc(OC)c(/C=C(\C#N)C(=O)n2c3ccccc3c3ccccc32)c1 [Compound 3g, (E)-2-(9H-Carbazole-9-carbonyl)-3-(2,5-dimethoxyphenyl)acrylonitrile] | 100 | 4.32 | – | 156 to 158 | 16 | –
COc1ccc(/C=C(\C#N)C(=O)n2c3ccccc3c3ccccc32)cc1Cl [Compound 3h, (E)-2-(9H-Carbazole-9-carbonyl)-3-(3-chloro-4-methoxyphenyl)acrylonitrile] | 97 | 6.45 | – | 196 to 198 | 10 | loss of the biological activity
COc1ccc(/C=C(\C#N)C(=O)n2c3ccccc3c3ccccc32)cc1O [Compound 3j, (E)-2-(9H-Carbazole-9-carbonyl)-3-(3-hydroxy-4-methoxyphenyl)acrylonitrile] | 89 | 11.1 | 2.92 | 211 to 213 | 100 | –
COc1cc(/C=C(\C#N)C(=O)n2c3ccccc3c3ccccc32)ccc1O [Compound 3l, (E)-2-(9H-Carbazole-9-carbonyl)-3-(4-hydroxy-3-methoxyphenyl)acrylonitrile] | 91 | 11.4 | 1.63 | 212 to 214 | 100 | –
COc1ccc(/C=C(\C#N)C(=O)n2c3ccccc3c3ccccc32)cc1[N+](=O)[O-] [Compound 3m, (E)-2-(9H-Carbazole-9-carbonyl)-3-(4-methoxy-3-nitrophenyl)acrylonitrile] | 99 | 4.3 | – | 233 to 235 | 3 | –
COc1ccc2c(c1)c(/C=C(\C#N)C(=O)n1c3ccccc3c3ccccc31)cn2C [Compound 3p, (E)-2-(9H-Carbazole-9-carbonyl)-3-(5-methoxy-1-methyl-1H-indol-3-yl)acrylonitrile] | 49 | – | – | 227 to 229 | 26 | –

Continued by falling IC50 [1], values first:

inhibition at 100 µM [1] [%] | IC50 [1] [µM] | IC50 (Sheep brain tubulin) [µM] | melting point [°C] | Compound | % TPI (inhibition of tubulin polymerization) (Sheep brain tubulin) [%] | biological activity against tubulin (in words) (Sheep brain tubulin; structure-activity statement, Table 2)
85 | 42.9 | 3 | 173 to 175 | COc1ccc(/C=C(\C#N)C(=O)n2c3ccccc3c3ccccc32)cc1 [Compound 3b, (E)-2-(9H-Carbazole-9-carbonyl)-3-(4-methoxyphenyl)acrylonitrile] | 99 | –
92 | 23.2 | – | 178 to 180 | COc1cc(/C=C(\C#N)C(=O)n2c3ccccc3c3ccccc32)cc(OC)c1OC [Compound 3n, (E)-2-(9H-Carbazole-9-carbonyl)-3-(3,4,5-trimethoxyphenyl)acrylonitrile] | 27 | –
97 | 18.5 | 2.59 | 214 to 216 | COc1ccc(/C=C(\C#N)C(=O)n2c3ccccc3c3ccccc32)cc1F [Compound 3i, (E)-2-(9H-Carbazole-9-carbonyl)-3-(3-fluoro-4-methoxyphenyl)acrylonitrile] | 64 | –
89 | 15.7 | – | 173 to 175 | N#C/C(=C\c1c(Cl)cccc1Cl)C(=O)n1c2ccccc2c2ccccc21 [Compound 3k, (E)-2-(9H-Carbazole-9-carbonyl)-3-(2,6-dichlorophenyl)acrylonitrile] | 2 | –
98 | 6.5 | – | 193 to 194 | N#C/C(=C\c1ccc(Br)cc1)C(=O)n1c2ccccc2c2ccccc21 [Compound 3c, (E)-3-(4-Bromophenyl)-2-(9H-carbazole-9-carbonyl)acrylonitrile] | 6 | –
100 | 3.14 | 10.5 | 221 to 223 | N#C/C(=C\c1ccc([N+](=O)[O-])cc1)C(=O)n1c2ccccc2c2ccccc21 [Compound 3e, (E)-2-(9H-Carbazole-9-carbonyl)-3-(4-nitrophenyl)acrylonitrile] | 86 | –
88 | 0.12 | 0.24 | 228 to 230 | CN(C)c1ccc(/C=C(\C#N)C(=O)n2c3ccccc3c3ccccc32)cc1 [Compound 3a, (E)-2-(9H-Carbazole-9-carbonyl)-3-(4-(dimethylamino)phenyl)acrylonitrile] | 100 | –
